Patent publication US5495032A, “Process for producing 7-(substituted)-8-(substituted-9-[(substituted glycyl)amido]-6-demethyl-6-deoxytetracyclines” (priority 1994, dated 1996)
Where a name gives a salt, the structure may show the parent alone. Read-outs that look alike come from different tables or passages of the source.

What was measured:
Format in all cases: cell-based
[1] = test system: E. coli UBMS 88-1 Tet B; assay: microbe, parasite or virus in culture; conditions: 18 hours at 35° C.
[2] = test system: E. coli MC 4100 Tet sens.; assay: MIC, agar dilution method; conditions: 18 hours at 35° C.
[3] = test system: E. coli PRP1 Tet A; assay: microbe, parasite or virus in culture; conditions: 18 hours at 35° C.
[4] = test system: E. coli MC 4100 TNIOC Tet B; assay: microbe, parasite or virus in culture; conditions: 18 hours at 35° C.
[5] = test system: E. coli J3272 Tet C; assay: microbe, parasite or virus in culture
[6] = test system: E. coli UBMS 89-1 Tet M; assay: microbe, parasite or virus in culture; conditions: 18 hours at 35° C.
[7] = test system: E. coli UBMS 89-2 Tet sens; assay: MIC, agar dilution method; conditions: 18 hours at 35° C.
[8] = test system: E. coli J2175; assay: MIC, agar dilution method; conditions: 18 hours at 35° C.
[9] = test system: E. coli BAJ9003 IMP MUT; assay: microbe, parasite or virus in culture; conditions: 18 hours at 35° C.
[10] = test system: E. coli UBMS 90-4 Tet M; assay: microbe, parasite or virus in culture; conditions: 18 hours at 35° C.
[11] = test system: E. coli UBMS 90-5 sens; assay: MIC, agar dilution method; conditions: 18 hours at 35° C.
[12] = test system: E. coli #311 (MP); assay: MIC, agar dilution method; conditions: 18 hours at 35° C.
[13] = test system: E. coli ATCC 25922; assay: MIC, agar dilution method
[14] = test system: E. coli J3272 Tet D; assay: microbe, parasite or virus in culture
[15] = test system: S. mariescens FPOR 8733; assay: MIC, agar dilution method; conditions: 18 hours at 35° C.
[16] = test system: X. maltophilia NEMC 87210; assay: MIC, agar dilution method; conditions: 18 hours at 35° C.
[17] = test system: Ps. acruginosa ATCC 27853; assay: MIC, agar dilution method
[18] = test system: S. aureus NEMC 8769; assay: MIC, agar dilution method
[19] = test system: S. aureus UBMS 88-4; assay: MIC, agar dilution method
[20] = test system: S. aureus UBMS 88-5 Tet M; assay: microbe, parasite or virus in culture
[21] = test system: S. aureus UBMS 88-7 Tet K; assay: microbe, parasite or virus in culture; conditions: 18 hours at 35° C.
[22] = test system: S. aureus UBMS 90-1 Tet M; assay: microbe, parasite or virus in culture; conditions: 18 hours at 35° C.
[23] = test system: S. aureus UBMS 90-3; assay: MIC, agar dilution method
[24] = test system: S. aureus UBMS 90-2 Tet M; assay: microbe, parasite or virus in culture; conditions: 18 hours at 35° C.
[25] = test system: S. aureus IVES 2943; assay: MIC, agar dilution method; conditions: S. aureus IVES 2943, 18 hours at 35° C.
[26] = test system: S. aureus ROSE (MP); assay: MIC, agar dilution method; conditions: 18 hours at 35° C.
[27] = test system: S. aureus SMITH (MP); assay: MIC, agar dilution method; conditions: 18 hours at 35° C.
[28] = test system: S. aureus IVES 1 983; assay: MIC, agar dilution method; conditions: S. aureus IVES 1 983, 18 hours at 35° C.
[29] = test system: S. aureus ATCC 29213; assay: MIC, agar dilution method; conditions: 18 hours at 35° C.
[30] = test system: S. hemolyticus AVHAH 88-3; assay: MIC, agar dilution method; conditions: 18 hours at 35° C.
[31] = test system: Enterococcus 12201; assay: MIC, agar dilution method; conditions: 18 hours at 35° C.
[32] = test system: E. faecalis ATCC 29212; assay: MIC, agar dilution method; conditions: 18 hours at 35° C.
[33] = Escherichia coli, read-out: MIC
[34] = Staphylococcus aureus, read-out: MIC

SMILES: CN(C)C1C(O)=C(C(N)=O)C(=O)C2(O)C(O)=C3C(=O)c4c(cc(Cl)c(NC(=O)CNCC5CC5)c4O)CC3CC12.Cl.Cl (stereo not drawn) [G, [4S-(4α,12aα)]-8-Chloro-9-[[(cyclopropylmethylamino)acetyl]amino]-4-(dimethylamino)-1,4,4a,5,5a,6,11,12a-octahydro-3,10,12,12a-tetrahydroxy-1,11-dioxo-2-naphthacenecarboxamide dihydrochloride]
- MIC [1]: 1 µg/mL
- MIC [2]: 0.25 µg/mL
- MIC [3]: 4 µg/mL
- MIC [4]: 1 µg/mL
- MIC ([5]; E. coli J3272 Tet C, 18 hours at 35° C.): 1 µg/mL
- MIC [6]: 0.5 µg/mL
- MIC [7]: 1 µg/mL
- MIC [8]: 1 µg/mL
- MIC [9]: 0.12 µg/mL
- MIC [10]: 1 µg/mL
- MIC [11]: 1 µg/mL
- MIC [12]: 1 µg/mL
- MIC ([13]; 18 hours at 35° C.): 1 µg/mL
- MIC ([14]; E. coli J3272 Tet D, 18 hours at 35° C.): 1 µg/mL
- MIC [15]: 8 µg/mL
- MIC [16]: 4 µg/mL
- MIC ([17]; Ps. acruginosa ATCC 27853, 18 hours at 35° C.): 32 µg/mL
- MIC ([18]; S. aureus NEMC 8769, 18 hours at 35° C.): 0.5 µg/mL
- MIC ([19]; 18 hours at 35° C.): 0.5 µg/mL
- MIC ([20]; S. aureus UBMS 88-5 Tet M, 18 hours at 35° C.): 0.5 µg/mL
- MIC [21]: 8 µg/mL
- MIC [22]: 2 µg/mL
- MIC ([23]; S. aureus UBMS 90-3, 18 hours at 35° C.): 0.12 µg/mL
- MIC [24]: 0.5 µg/mL
- MIC [25]: 16 µg/mL
- MIC [26]: 32 µg/mL
- MIC [27]: 0.5 µg/mL
- MIC [28]: 16 µg/mL
- MIC [29]: 0.25 µg/mL
- MIC [30]: 8 µg/mL
- MIC [31]: 0.25 µg/mL
- MIC [32]: 0.25 µg/mL

SMILES: CNCC(=O)Nc1c(Cl)cc2c(c1O)C(=O)C1=C(O)[C@]3(O)C(=O)C(C(N)=O)=C(O)[C@@H](N(C)C)C3CC1C2 (stereo partly drawn) [I, [4S-(4α,12aα)]-8-Chloro-4-(dimethylamino)-1,4,4a,5,5a,6,11,12a-octahydro-3, 10,12,12a-tetrahydroxy-1,11-dioxo-9-[[(methylamino)acetyl]amino]-2-naphthacenecarboxamide dihydrochloride]
- MIC ([1]; Escherichia coli, UBMS881TETB, 18 h): 1 µg/mL
- MIC [2, 33]: 0.25 µg/mL
- MIC ([3]; Escherichia coli, PRP1TETA, 18 h): 16 µg/mL
- MIC ([4]; Escherichia coli, 18 h): 1 µg/mL
- MIC ([5]; Escherichia coli, J3272TETC, 18 h): 16 µg/mL
- MIC ([6]; Escherichia coli, UBMS891TETM, 18 h): 2 µg/mL
- MIC ([7]; Escherichia coli, UBMS892TETSENS, 18 h, read-out: MIC): 2 µg/mL
- MIC [8, 33]: 1 µg/mL
- MIC ([9]; Escherichia coli, BAJ9003IMPMUT, 18 h): 0.25 µg/mL
- MIC ([10]; Escherichia coli, UBMS904TETM, 18 h): 1 µg/mL
- MIC ([11]; Escherichia coli, UBMS905SENS, read-out: MIC): 1 µg/mL
- MIC [12, 33]: 2 µg/mL
- MIC ([13]; Escherichia coli, ATCC25922, 18 hours at 35° C., read-out: MIC): 1 µg/mL
- MIC ([14]; Escherichia coli, J3272TETD, 18 h): 1 µg/mL
- MIC ([15]; 18 h): 16 µg/mL
- MIC ([16]; Stenotrophomonas maltophilia, NEMC87210, 18 h): 16 µg/mL
- MIC ([17]; 18 h): 16 µg/mL
- MIC ([18]; Staphylococcus aureus, NEMC8769, 18 h): 0.5 µg/mL
- MIC ([19]; Staphylococcus aureus, UBMS884, 18 hours at 35° C., read-out: MIC): 0.5 µg/mL
- MIC ([20]; Staphylococcus aureus, UBMS885TETM, 18 h): 0.5 µg/mL
- MIC ([21]; Staphylococcus aureus, UBMS887TETK, 18 h): > 32 µg/mL
- MIC ([22]; Staphylococcus aureus, UBMS901TETM, 18 h): 0.5 µg/mL
- MIC ([23]; Staphylococcus aureus, UBMS903, 18 h): 0.5 µg/mL
- MIC ([24]; Staphylococcus aureus, UBMS902TETM, 18 h): 0.5 µg/mL
- MIC ([25]; Staphylococcus aureus, IVES2943, read-out: MIC): > 32 µg/mL
- MIC [26, 34]: > 32 µg/mL
- MIC [27, 34]: 0.5 µg/mL
- MIC ([28]; Staphylococcus aureus, IVES1983, read-out: MIC): > 32 µg/mL
- MIC ([29]; Staphylococcus aureus, ATCC29213, 18 h): 0.5 µg/mL
- MIC ([30]; Streptococcus pyogenes, AVHAH883, 18 h): 2 µg/mL
- MIC ([31]; Enterococcus, 12201, 18 h): 0.5 µg/mL
- MIC ([32]; Enterococcus faecalis, ATCC29212, 18 h): 0.25 µg/mL
